Assay results published in PMC12030627, “Radioiodinated Bicyclic RGD Peptide Derivatives for Enhanced Tumor Accumulation” (Pharmaceuticals, 2025).
Like-named read-outs stand apart in the source and are kept apart here. Starred links: 1 amine or outer side, 2 acyl side, 3 side chain; linkers in the order of their positions; H or OH if unused. Positions of bridges follow the written chain, without caps; N, C: chain ends. Non-standard residues stand in square brackets, D forms with d. Residues, ends and D or L forms follow the SMILES beside them. *: point of attachment. Butanoyl(4-(4-I-phenyl)) = O=C(CCCc1ccc(I)cc1)*; TBMB = c1c(C[*:1])cc(C[*:3])cc1C[*:2]; Benzoyl(3-I) = O=C(c1cccc(I)c1)*; 4Abz = Nc1ccc(C(=O)O)cc1

Experiment: Biodistribution in U-87 MG tumor-bearing mice
Type: in vivo, BALB/c nu-nu mice
Details: male, BALB/c nu-nu, mouse, iv, 37 kBq, total radioactivity, U-87 MG-bearing mice, mean ± SD, n = 3; for tissue uptake at 1 h / tissue uptake dose at 1 h: 1 h after i.v. administration; for tissue uptake at 2 h / tissue uptake dose at 2 h: 2 h after i.v. administration; for tissue uptake at 6 h / tissue uptake dose at 6 h: 6 h after i.v. administration; for tissue uptake at 5 min / tissue uptake dose at 5 min: 5 min after i.v. administration; for tissue uptake at 0.5 h / tissue uptake dose at 0.5 h: 30 min after i.v. administration
Protocol: Animal experiments were performed in compliance with institutional animal care regulations, with the study protocol approved by the Experimental Animal Committee of Osaka Medical and Pharmaceutical University (Approval Numbers: 21–76, 22–76, and 23–76). Four-week-old male BALB/c nu-nu mice (Japan SLC, Shizuoka, Japan) were housed under a 12 h light/12 h dark cycle with free access to food and water. Tumor-bearing mice were established by suspending U-87 MG cells (2 × 10^6 cells/mouse) in PBS(–) and subcutaneously injecting 100 μL of the suspension into the right hind leg. For co-implantation models, A549 cells (2 × 10^6 cells/mouse) were suspended in PBS(–) and inoculated (100 μL) into the left hind leg of the same mice already inoculated with U-87 MG cells. Mice with tumor size approximately 10 mm in diameter, 4–5 weeks after inoculation, were used for biodistribution studies. Animals in which either tumor was not viable were excluded from the experiment.
U-87 MG-bearing mice (n = 42, 8–9 weeks old; 22–27 g) were randomly assigned into groups and administered [^125I]bcRGDpal or [^125I]bcRGDiba via intravenous injection (37 kBq in 100 μL of PBS containing 0.1% Tween 80 (PBS-T80)). At 5 min, 30 min, 1 h, 2 h, 6 h, 12 h, or 24 h post-injection, the mice were euthanized (n = 3 per time point). The heart, kidneys, liver, brain, pancreas, spleen, lung, small intestine, large intestine, muscle, skin, stomach, bone, and tumors were excised. Each organ’s weight and radioactivity were measured by a NaI well-type scintillation counter, and the % ID/g was calculated. To investigate the correlation between integrin expression and radioactivity accumulation, biodistribution at 2 h after administration of [^125I]bcRGDpal or [^125I]bcRGDiba was assessed in A549 and U-87 MG co-implantation mice (n = 5) using the same procedure. Additionally, co-implantation mice were injected with [^125I]bcRGDdimer (37 kBq/100 μL PBS-T80) and euthanized at 30 min, 2 h, and 4 h post-injection (n = 4 per time point), and % ID/g values were calculated as described above. The minimum sample size needed for the biodistribution study in U-87 MG-bearing mice was calculated using G Power software version 3.1.9.7. The calculation was based on a two-tailed test, with an effect size of 3.9, a significance level (α) of 0.05, and a statistical power (1 − β) of 0.8. […] The minimum required sample size for the biodistribution study in A549 and U-87 MG co-implantation mice was also calculated to be four animals per group (effect size = 2.5, α = 0.05, 1 − β = 0.8). To guarantee objective results, the experiment was carried out in a blinded manner. Specifically, drug administration and radioactivity measurements were conducted by different investigators to eliminate potential bias.

[1] = liver, read-out: Radioactivity in liver
[2] = lung, read-out: Radioactivity in lung
[3] = muscle, read-out: Radioactivity in muscle
[4] = pancreas, read-out: Radioactivity in pancreas
[5] = small intestine, read-out: Radioactivity in small intestine
[6] = spleen, read-out: Radioactivity in spleen
[7] = stomach, read-out: Radioactivity in stomach
[8] = thyroid, read-out: Radioactivity in thyroid

With `N=C(N)NCCC[C@@H]1NC(=O)[C@H]2CSCc3cc(cc(c3)CSC[C@H](C(N)=O)NC(=O)[C@H](CC(=O)O)NC(=O)CNC1=O)CSC[C@H](NC(=O)CNC(=O)[C@H](CO)NC(=O)c1ccc(NC(=O)CNC(=O)[C@H](CO)NC(=O)[C@@H]3CCCN3C(=O)[C@@H]3CCCN3C(=O)[C@@H]3CCCN3C(=O)[C@H](CCCCNC(=O)c3cccc(I)c3)NC(=O)CCCc3ccc(I)cc3)cc1)C(=O)N[C@@H](Cc1c[nH]cn1)C(=O)N1CCC[C@H]1C(=O)N[C@@H](CCC(N)=O)C(=O)N2` [[^125I]bcRGDiba] ({Butanoyl(4-(4-I-phenyl))}-K(Benzoyl(3-I))PPPSG[4Abz]SGCHPQ[dC]RGD[dC]-NH2; linker 10-14-18 via TBMB) the tissue uptake at 1 h [1] was 5.7 ± 0.7 %ID/g, the tissue uptake at 2 h [1] was 5.1 ± 0.4 %ID/g and the tissue uptake at 6 h [1] was 3.4 ± 0.4 %ID/g. The tissue uptake at 12 h (liver, 12 h after i.v. administration, read-out: Radioactivity in liver) was 1.4 ± 0.2 %ID/g, the tissue uptake at 24 h (liver, 24 h after i.v. administration, read-out: Radioactivity in liver) was 0.6 %ID/g and the tissue uptake at 5 min [2] was 10.7 ± 1.9 %ID/g. The tissue uptake at 0.5 h [2] was 9.4 ± 0.3 %ID/g, the tissue uptake at 1 h [2] was 8.2 ± 0.6 %ID/g and the tissue uptake at 2 h [2] was 7.5 ± 0.4 %ID/g. For the same compound, the tissue uptake at 6 h [2] was 5.3 ± 0.5 %ID/g, the tissue uptake at 12 h (lung, 12 h after i.v. administration, read-out: Radioactivity in lung) was 2.6 ± 0.3 %ID/g and the tissue uptake at 24 h (lung, 24 h after i.v. administration, read-out: Radioactivity in lung) was 1.2 ± 0.1 %ID/g. It also gave a tissue uptake at 5 min [3] of 1.4 ± 0.4 %ID/g, a tissue uptake at 0.5 h [3] of 1.5 ± 0.2 %ID/g and a tissue uptake at 1 h [3] of 1.5 ± 0.1 %ID/g. The tissue uptake at 2 h [3] was 1.5 ± 0.2 %ID/g, the tissue uptake at 6 h [3] was 1.2 ± 0.3 %ID/g and the tissue uptake at 12 h (muscle, 12 h after i.v. administration, read-out: Radioactivity in muscle) was 0.5 ± 0.1 %ID/g. The tissue uptake at 24 h (muscle, 24 h after i.v. administration, read-out: Radioactivity in muscle) was 0.3 %ID/g, the tissue uptake at 5 min [4] was 2.3 ± 0.4 %ID/g and the tissue uptake at 0.5 h [4] was 2 ± 0.2 %ID/g. It also gave a tissue uptake at 1 h [4] of 1.5 ± 0.2 %ID/g, a tissue uptake at 2 h [4] of 1.4 ± 0.2 %ID/g and a tissue uptake at 6 h [4] of 1 ± 0.2 %ID/g. For the same compound, the tissue uptake at 12 h (pancreas, 12 h after i.v. administration, read-out: Radioactivity in pancreas) was 0.5 ± 0.1 %ID/g, the tissue uptake at 24 h (pancreas, 24 h after i.v. administration, read-out: Radioactivity in pancreas) was 0.2 %ID/g and the tissue uptake at 5 min [5] was 2.3 ± 0.4 %ID/g. The tissue uptake at 0.5 h [5] was 3 ± 0.1 %ID/g, the tissue uptake at 1 h [5] was 4.8 ± 0.6 %ID/g and the tissue uptake at 2 h [5] was 4.9 ± 0.3 %ID/g. For the same compound, the tissue uptake at 6 h [5] was 5.6 ± 1.1 %ID/g, the tissue uptake at 12 h (small intestine, 12 h after i.v. administration, read-out: Radioactivity in small intestine) was 2.2 ± 0.5 %ID/g and the tissue uptake at 24 h (small intestine, 24 h after i.v. administration, read-out: Radioactivity in small intestine) was 0.9 ± 0.1 %ID/g. The tissue uptake at 5 min [6] was 2.9 ± 0.5 %ID/g, the tissue uptake at 0.5 h [6] was 3 ± 0.2 %ID/g and the tissue uptake at 1 h [6] was 2.5 ± 0.2 %ID/g. It also gave a tissue uptake at 2 h [6] of 2.3 ± 0.3 %ID/g, a tissue uptake at 6 h [6] of 1.7 ± 0.5 %ID/g and a tissue uptake at 12 h (spleen, 12 h after i.v. administration, read-out: Radioactivity in spleen) of 0.9 ± 0.1 %ID/g. It also gave a tissue uptake at 24 h (spleen, 24 h after i.v. administration, read-out: Radioactivity in spleen) of 0.4 %ID/g, a tissue uptake dose at 5 min [7] of 0.4 ± 0.1 %ID and a tissue uptake dose at 0.5 h [7] of 0.8 ± 0.2 %ID. The tissue uptake dose at 1 h [7] was 0.7 ± 0.1 %ID, the tissue uptake dose at 2 h [7] was 0.7 ± 0.3 %ID and the tissue uptake dose at 6 h [7] was 0.8 ± 0.2 %ID. For the same compound, the tissue uptake dose at 12 h (stomach, 12 h after i.v. administration) was 0.2 ± 0.1 %ID, the tissue uptake dose at 24 h (stomach, 24 h after i.v. administration) was 0.2 %ID and the tissue uptake dose at 5 min [8] was 0.1 %ID. For the same compound, the tissue uptake dose at 0.5 h [8] was 0.1 ± 0.1 %ID, the tissue uptake dose at 1 h [8] was 0.1 ± 0.1 %ID and the tissue uptake dose at 2 h [8] was 0.1 ± 0.1 %ID. For the same compound, the tissue uptake dose at 6 h [8] was 0.1 %ID.
